According to PubChem BioAssay (NCI):
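Protocol summary: plate cells (96-well), add compound at 5 concentrations, incubate 48 h, interpolate endpoints linearly. Definition used: TGI = concentration required for complete inhibition of growth.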

How the values were obtained:
Assay in all cases: growth of human tumour cells (NCI), 48 h
HCC-2998 colon = tested on: HCC-2998 colon
SK-OV-3 ovarian = tested on: SK-OV-3 ovarian
PC-3 prostate = tested on: PC-3 prostate
UO-31 renal = tested on: UO-31 renal
SNB-19 CNS = tested on: SNB-19 CNS
CCRF-CEM leukemia = tested on: CCRF-CEM leukemia
U251 CNS = tested on: U251 CNS
ACHN renal = tested on: ACHN renal
HOP-62 NSCLC = tested on: HOP-62 NSCLC
TK-10 renal = tested on: TK-10 renal
UACC-62 melanoma = tested on: UACC-62 melanoma
RPMI-8226 leukemia = tested on: RPMI-8226 leukemia
MCF7 breast = tested on: MCF7 breast
HCT-15 colon = tested on: HCT-15 colon
K-562 leukemia = tested on: K-562 leukemia
A549 NSCLC = tested on: A549 NSCLC
UACC-257 melanoma = tested on: UACC-257 melanoma
SK-MEL-28 melanoma = tested on: SK-MEL-28 melanoma
OVCAR-8 ovarian = tested on: OVCAR-8 ovarian
OVCAR-4 ovarian = tested on: OVCAR-4 ovarian
SK-MEL-2 melanoma = tested on: SK-MEL-2 melanoma
HS 578T breast = tested on: HS 578T breast
SF-295 CNS = tested on: SF-295 CNS
NCI-H23 lung = tested on: NCI-H23 lung
HCT-116 colon = tested on: HCT-116 colon
MDA-MB-231 breast = tested on: MDA-MB-231 breast
SF-268 CNS = tested on: SF-268 CNS
NCI-H522 lung = tested on: NCI-H522 lung
SR leukemia = tested on: SR leukemia
OVCAR-3 ovarian = tested on: OVCAR-3 ovarian
MDA-MB-435 = tested on: MDA-MB-435
KM12 colon = tested on: KM12 colon
MOLT-4 leukemia = tested on: MOLT-4 leukemia
A498 renal = tested on: A498 renal
786-0 renal = tested on: 786-0 renal
CAKI-1 renal = tested on: CAKI-1 renal
NCI-H226 lung = tested on: NCI-H226 lung
SW-620 colon = tested on: SW-620 colon
SN12C renal = tested on: SN12C renal
NCI-H460 lung = tested on: NCI-H460 lung
OVCAR-5 ovarian = tested on: OVCAR-5 ovarian
COLO 205 colon = tested on: COLO 205 colon
SF-539 CNS = tested on: SF-539 CNS
RXF 393 renal = tested on: RXF 393 renal
M14 melanoma = tested on: M14 melanoma
NCI/ADR-RES ovarian = tested on: NCI/ADR-RES ovarian
EKVX NSCLC = tested on: EKVX NSCLC
DU-145 prostate = tested on: DU-145 prostate
LOX IMVI melanoma = tested on: LOX IMVI melanoma
BT-549 breast = tested on: BT-549 breast
SK-MEL-5 melanoma = tested on: SK-MEL-5 melanoma
MDA-N = tested on: MDA-N
T-47D breast = tested on: T-47D breast
MALME-3M melanoma = tested on: MALME-3M melanoma
HOP-92 NSCLC = tested on: HOP-92 NSCLC
SNB-75 CNS = tested on: SNB-75 CNS
HT29 colon = tested on: HT29 colon
IGROV1 ovarian = tested on: IGROV1 ovarian
HL-60(TB) leukemia = tested on: HL-60(TB) leukemia

CC1OC(OC2C(O)COC(OC3C(C)OC(OC4C(OC(=O)[C@]56CCC(C)(C)C[C@@H]5C5=CCC7[C@@]8(C)C[C@H](O)[C@H](OC9OC(CO)C(O)C(O)C9O)[C@@](C)(CO)[C@@H]8CC[C@@]7(C)[C@]5(C)CC6)OCC(O)C4O)C(O)C3OC3OCC(O)C(O)C3O)C2O)C(O)C(O)C1O (stereo not given in full)
TGI (HCC-2998 colon): 33.9 µM | TGI (SK-OV-3 ovarian): 34.7 µM | TGI (PC-3 prostate): 29.5 µM | TGI (UO-31 renal): 17.6 µM | TGI (SNB-19 CNS): 33.7 µM | TGI (CCRF-CEM leukemia): 34.9 µM | TGI (U251 CNS): 39.1 µM | TGI (ACHN renal): 36.1 µM | TGI (HOP-62 NSCLC): 35.4 µM | TGI (TK-10 renal): 33 µM | TGI (UACC-62 melanoma): 41.1 µM | TGI (RPMI-8226 leukemia): > 100 µM | TGI (MCF7 breast): 43.8 µM | TGI (HCT-15 colon): 51.4 µM | TGI (K-562 leukemia): > 100 µM | TGI (A549 NSCLC): 28.2 µM | TGI (UACC-257 melanoma): 31.7 µM | TGI (SK-MEL-28 melanoma): 25.9 µM | TGI (OVCAR-8 ovarian): 37.3 µM | TGI (OVCAR-4 ovarian): 48.8 µM | TGI (SK-MEL-2 melanoma): 37.9 µM | TGI (HS 578T breast): 63.9 µM | TGI (SF-295 CNS): 39.2 µM | TGI (NCI-H23 lung): 40.8 µM | TGI (HCT-116 colon): 38.5 µM | TGI (MDA-MB-231 breast): 31 µM | TGI (SF-268 CNS): 47.5 µM | TGI (NCI-H522 lung): 62.4 µM | TGI (SR leukemia): 46.1 µM | TGI (OVCAR-3 ovarian): 37.9 µM | TGI (MDA-MB-435): 44.8 µM | TGI (KM12 colon): 72.9 µM | TGI (MOLT-4 leukemia): 46 µM | TGI (A498 renal): 32.7 µM | TGI (786-0 renal): 29.2 µM | TGI (CAKI-1 renal): 26.8 µM | TGI (NCI-H226 lung): 46.1 µM | TGI (SW-620 colon): 32.2 µM | TGI (SN12C renal): 35 µM | TGI (NCI-H460 lung): 41.6 µM | TGI (OVCAR-5 ovarian): 30.2 µM | TGI (COLO 205 colon): 19.3 µM | TGI (SF-539 CNS): 36.3 µM | TGI (RXF 393 renal): 34.1 µM | TGI (M14 melanoma): 23.2 µM | TGI (NCI/ADR-RES ovarian): 46 µM | TGI (EKVX NSCLC): 23.8 µM | TGI (DU-145 prostate): 36.2 µM | TGI (LOX IMVI melanoma): 37 µM | TGI (BT-549 breast): 52.6 µM | TGI (SK-MEL-5 melanoma): 36.2 µM | TGI (MDA-N): 35.2 µM | TGI (T-47D breast): 44.8 µM | TGI (MALME-3M melanoma): 54.7 µM | TGI (HOP-92 NSCLC): 44 µM | TGI (SNB-75 CNS): 41.1 µM

Cc1ccc(NN=NCCCCN=NNc2ccc(C)cc2)cc1
TGI (HCC-2998 colon): > 100 µM | TGI (SK-OV-3 ovarian): > 100 µM | TGI (PC-3 prostate): > 100 µM | TGI (UO-31 renal): 2.1 µM | TGI (CCRF-CEM leukemia): 98.4 µM | TGI (U251 CNS): > 100 µM | TGI (HOP-62 NSCLC): > 100 µM | TGI (TK-10 renal): 17.9 µM | TGI (UACC-62 melanoma): > 100 µM | TGI (MCF7 breast): > 100 µM | TGI (HCT-15 colon): > 100 µM | TGI (K-562 leukemia): > 100 µM | TGI (A549 NSCLC): > 100 µM | TGI (UACC-257 melanoma): > 100 µM | TGI (SK-MEL-28 melanoma): > 100 µM | TGI (OVCAR-8 ovarian): > 100 µM | TGI (OVCAR-4 ovarian): > 100 µM | TGI (SK-MEL-2 melanoma): > 100 µM | TGI (HS 578T breast): > 100 µM | TGI (SF-295 CNS): > 100 µM | TGI (NCI-H23 lung): 81.2 µM | TGI (HCT-116 colon): > 100 µM | TGI (MDA-MB-231 breast): > 100 µM | TGI (SF-268 CNS): > 100 µM | TGI (SR leukemia): > 100 µM | TGI (OVCAR-3 ovarian): > 100 µM | TGI (MDA-MB-435): > 100 µM | TGI (MOLT-4 leukemia): > 100 µM | TGI (A498 renal): > 100 µM | TGI (HT29 colon): > 100 µM | TGI (CAKI-1 renal): > 100 µM | TGI (NCI-H226 lung): > 100 µM | TGI (SW-620 colon): > 100 µM | TGI (SN12C renal): > 100 µM | TGI (NCI-H460 lung): > 100 µM | TGI (OVCAR-5 ovarian): > 100 µM | TGI (COLO 205 colon): > 100 µM | TGI (SF-539 CNS): > 100 µM | TGI (IGROV1 ovarian): > 100 µM | TGI (RXF 393 renal): > 100 µM | TGI (M14 melanoma): > 100 µM | TGI (NCI/ADR-RES ovarian): > 100 µM | TGI (EKVX NSCLC): > 100 µM | TGI (DU-145 prostate): > 100 µM | TGI (LOX IMVI melanoma): > 100 µM | TGI (HL-60(TB) leukemia): 30.3 µM | TGI (BT-549 breast): > 100 µM | TGI (SK-MEL-5 melanoma): > 100 µM | TGI (MDA-N): > 100 µM | TGI (T-47D breast): > 100 µM | TGI (MALME-3M melanoma): > 100 µM | TGI (HOP-92 NSCLC): > 100 µM | TGI (SNB-75 CNS): > 100 µM

NC(N)=NCCCC(NC(=O)OCCCCCn1ccc(N)nc1=O)C(=O)O (stereo not given)
TGI (HCC-2998 colon): > 100 µM | TGI (SK-OV-3 ovarian): > 100 µM | TGI (PC-3 prostate): > 100 µM | TGI (UO-31 renal): > 100 µM | TGI (SNB-19 CNS): > 100 µM | TGI (CCRF-CEM leukemia): > 100 µM | TGI (U251 CNS): > 100 µM | TGI (ACHN renal): > 100 µM | TGI (HOP-62 NSCLC): > 100 µM | TGI (TK-10 renal): > 100 µM | TGI (UACC-62 melanoma): > 100 µM | TGI (RPMI-8226 leukemia): > 100 µM | TGI (MCF7 breast): > 100 µM | TGI (HCT-15 colon): > 100 µM | TGI (K-562 leukemia): > 100 µM | TGI (A549 NSCLC): > 100 µM | TGI (UACC-257 melanoma): > 100 µM | TGI (SK-MEL-28 melanoma): > 100 µM | TGI (OVCAR-8 ovarian): > 100 µM | TGI (OVCAR-4 ovarian): > 100 µM | TGI (SK-MEL-2 melanoma): > 100 µM | TGI (HS 578T breast): > 100 µM | TGI (SF-295 CNS): > 100 µM | TGI (NCI-H23 lung): > 100 µM | TGI (HCT-116 colon): > 100 µM | TGI (MDA-MB-231 breast): > 100 µM | TGI (SF-268 CNS): > 100 µM | TGI (SR leukemia): > 100 µM | TGI (OVCAR-3 ovarian): > 100 µM | TGI (MDA-MB-435): > 100 µM | TGI (KM12 colon): > 100 µM | TGI (MOLT-4 leukemia): > 100 µM | TGI (A498 renal): > 100 µM | TGI (HT29 colon): > 100 µM | TGI (786-0 renal): > 100 µM | TGI (CAKI-1 renal): > 100 µM | TGI (NCI-H226 lung): > 100 µM | TGI (SW-620 colon): > 100 µM | TGI (SN12C renal): > 100 µM | TGI (NCI-H460 lung): > 100 µM | TGI (OVCAR-5 ovarian): > 100 µM | TGI (COLO 205 colon): > 100 µM | TGI (SF-539 CNS): > 100 µM | TGI (IGROV1 ovarian): > 100 µM | TGI (RXF 393 renal): > 100 µM | TGI (M14 melanoma): > 100 µM | TGI (NCI/ADR-RES ovarian): > 100 µM | TGI (EKVX NSCLC): > 100 µM | TGI (DU-145 prostate): > 100 µM | TGI (LOX IMVI melanoma): > 100 µM | TGI (HL-60(TB) leukemia): > 100 µM | TGI (BT-549 breast): > 100 µM | TGI (MDA-N): > 100 µM | TGI (T-47D breast): > 100 µM | TGI (HOP-92 NSCLC): > 100 µM | TGI (SNB-75 CNS): > 100 µM
